The numbers were not newly measured in patent US20210353673A1, “CD11B + PIEZO-1 + MACROPHAGES AND USES THEREOF” (ALBERT-LUDWIGS-UNIVERSITÄT FREIBURG, priority 2018, published 2021), which cites them from elsewhere.

In the data set the test system is endothelial cells. The note with it: after 1 week, normal angiogenesis induced by VEGF.

With “vascular endothelial growth factor [VEGF]”, the “ECs in Go phase” value was 93%.
